Patent publication US20220288057A1, “CONJOINT THERAPY FOR TREATING SEIZURE DISORDERS” (XENON PHARMACEUTICALS INC., priority 2021, published 2022)
Where “and” joins values, the source holds several entries; their conditions need not be identical. Identical values can stand only once. Like-named read-outs stand apart in the source and are kept apart here.

Key:
[1] = Plasma and brain concentrations after MES testing (UHPLC-ESI-MS/MS); conditions: for concentration at 2 h: mouse, in vivo;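 on all read-outs here: brain and plasma were sampled from mice right after the efficacy test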
[2] = Clinical observations / behavioral signs in AC-MES studies; type: in vivo, mouse; conditions: male, CF-1, mouse, in vivo, read-out: plasma concentration of individual mouse showing behavioral signs (tremors, decreased activity, splayed hindlimbs)
Method: Any qualitative changes from normal behavior were recorded.
Five oral (PO) doses of Compound A were each tested in the AC-MES model. Thirty minutes after administration of Compound A at 1 mg/kg (n=8), 3 mg/kg (n=8), 5 mg/kg (n=16), 7.5 mg/kg (n=7), and 10 mg/kg (n=17) via oral gavage to male CF-1 mice (body weights 28.2 to 43.8 g), the mice underwent a 60 Hz corneal electrical stimulus (0.2 seconds duration, 40 mA). This stimulus elicited a tonic hindlimb extension in all vehicle-dosed animals. […] An observational neurological assessment (qualitative test) was also conducted at the time of testing as a tolerability screen. Terminal plasma and brain samples were collected from all animals to obtain the levels of Compound A concentration, and to understand the relationship between efficacy and drug concentration.
The Blinding and Randomization, Clinical Observations, AC-MES Assay, Sample Collection and Preparation, Plasma and Brain Samples Analysis, and Bioanalysis Procedures in Example 4 were identical to those used in Example 2.

[3] = Compound A 1 mg/kg PO 2 h alone (levetiracetam study), 1 mg/kg
[4] = Compound A 1 mg/kg PO 2 h alone (phenytoin study), 1 mg/kg
[5] = Compound A 1 mg/kg PO 2 h alone (valproic acid study), 1 mg/kg
[6] = Compound A 2.5 mg/kg PO 2 h alone (phenytoin study), 2.5 mg/kg
[7] = analyte Compound A, 0.25 mg/kg + 2 mg/kg Phenytoin
[8] = analyte Compound A, 0.75 mg/kg + 2 mg/kg Phenytoin
[9] = analyte Compound A, 1 mg/kg + 2 mg/kg Phenytoin
[10] = analyte Compound A, 1 mg/kg PO + 100 mg/kg Valproic Acid IP
[11] = analyte Compound A, 2.5 mg/kg + 2 mg/kg Phenytoin

Cc1cc(N2CCc3cc(F)ccc3C2)cc(C)c1NC(=O)CC(C)(C)C [Compound A, N-[4-(6-fluoro-3,4-dihydro-1H-isoquinolin-2-yl)-2,6-dimethylphenyl]-3,3-dimethylbutanamide]
Brain concentration, Mean [1, 3]: 0.06 µM | Plasma concentration, Mean [1, 3]: 0.03 μM and 11.1 ng/mL | Brain concentration, Mean [1, 4]: 0.09 µM | Plasma concentration, Mean [1, 4]: 0.05 μM and 17.0 ng/mL | Brain concentration, Mean [1, 5]: 0.16 µM | Plasma concentration, Mean [1, 5]: 0.066 μM and 24 ng/mL | Concentration Plasma ([1]; Compound A 1 mg/kg PO single dose, tissue collection 2 hr, 1 mg/kg): 0.10 µM | Brain concentration, Mean [1, 6]: 0.39 µM | Plasma concentration, Mean [1, 6]: 45.1 ng/mL and 0.12 μM | Brain concentration, Mean [1, 7]: 0.05 µM | Plasma concentration, Mean [1, 7]: 0.02 μM and 5.6 ng/mL | Brain concentration, Mean [1, 8]: 0.15 µM | Plasma concentration, Mean [1, 8]: 0.04 μM and 16.0 ng/mL | Brain concentration, Mean [1, 9]: 0.10 µM | Plasma concentration, Mean [1, 9]: 0.05 μM and 19.0 ng/mL | Brain concentration, Mean [1, 10]: 0.097 µM | Plasma concentration, Mean [1, 10]: 0.042 μM and 15 ng/mL | Brain concentration, Mean [1, 11]: 0.51 µM | Plasma concentration, Mean [1, 11]: 58.4 ng/mL and 0.16 μM | concentration at 2 h ([1]; 1 mg/kg, plasma concentration, Compound A 1 mg/kg, mean±SEM, n=15): 0.066 ± 0.014 µM | concentration at 2 h ([1]; Brain concentration, Mean, analyte Compound A, 0.25 mg/kg + 2 mg/kg Phenytoin): 50 nM and 18.4 ng/g | concentration at 2 h ([1]; Brain concentration, Mean, analyte Compound A, 0.75 mg/kg + 2 mg/kg Phenytoin): 150 nM and 56.7 ng/g | concentration at 2 h ([1]; Brain concentration, Mean, analyte Compound A, 1 mg/kg + 2 mg/kg Phenytoin): 100 nM and 37 ng/g | concentration at 2 h ([1]; Brain concentration, Mean, analyte Compound A, 1 mg/kg PO + 100 mg/kg Valproic Acid IP): 97 nM and 36 ng/g | concentration at 2 h ([1]; Brain concentration, Mean, analyte Compound A, 2.5 mg/kg + 2 mg/kg Phenytoin): 510 nM and 186 ng/g | concentration at 2 h ([1]; Plasma concentration, Mean, analyte Compound A, 0.25 mg/kg + 2 mg/kg Phenytoin): 20 nM and 5.6 ng/mL | concentration at 2 h ([1]; Plasma concentration, Mean, analyte Compound A, 0.75 mg/kg + 2 mg/kg Phenytoin): 40 nM and 16 ng/mL | concentration at 2 h ([1]; Plasma concentration, Mean, analyte Compound A, 1 mg/kg + 2 mg/kg Phenytoin): 50 nM and 19 ng/mL | concentration at 2 h ([1]; Plasma concentration, Mean, analyte Compound A, 1 mg/kg PO + 100 mg/kg Valproic Acid IP): 42 nM and 15 ng/mL | concentration at 2 h ([1]; Plasma concentration, Mean, analyte Compound A, 2.5 mg/kg + 2 mg/kg Phenytoin): 160 nM and 58.4 ng/mL | concentration at 2 h ([1]; mean total brain concentration, analyte Compound A, 1 mg/kg PO + Valproic Acid 30 mg/kg IP): 75 nM and 28 ng/g | concentration at 2 h ([1]; mean total brain concentration, analyte Compound A, 1 mg/kg PO + Valproic Acid 56 mg/kg IP): 117 nM and 43 ng/g | concentration at 2 h ([1]; mean total plasma concentration, analyte Compound A, 1 mg/kg PO + Valproic Acid 30 mg/kg IP): 38 nM and 14 ng/mL | concentration at 2 h ([1]; mean total plasma concentration, analyte Compound A, 1 mg/kg PO + Valproic Acid 56 mg/kg IP): 18 ng/mL and 50 nM | concentration at 2 h ([1]; po, 0.25 mg/kg, Brain concentration, Mean, Compound A 0.25 mg/kg PO 2 h alone (phenytoin study)): 40 nM and 14.8 ng/g | concentration at 2 h ([1]; po, 0.25 mg/kg, Plasma concentration, Mean, Compound A 0.25 mg/kg PO 2 h alone (phenytoin study)): 10 nM and 4.3 ng/mL | concentration at 2 h ([1]; po, 0.75 mg/kg, Brain concentration, Mean, Compound A 0.75 mg/kg PO 2 h alone (phenytoin study)): 120 nM and 43.8 ng/g | concentration at 2 h ([1]; po, 0.75 mg/kg, Plasma concentration, Mean, Compound A 0.75 mg/kg PO 2 h alone (phenytoin study)): 11.7 ng/mL and 30 nM | concentration at 2 h ([1]; po, 1 mg/kg, Brain concentration, Mean, Compound A 1 mg/kg PO 2 h alone (levetiracetam study)): 60 nM and 20.9 ng/g | concentration at 2 h ([1]; po, 1 mg/kg, Brain concentration, Mean, Compound A 1 mg/kg PO 2 h alone (phenytoin study)): 100 nM and 35 ng/g | concentration at 2 h ([1]; po, 1 mg/kg, Brain concentration, Mean, Compound A 1 mg/kg PO 2 h alone (valproic acid study)): 160 nM and 59 ng/g | concentration at 2 h ([1]; po, 1 mg/kg, Plasma concentration, Mean, Compound A 1 mg/kg PO 2 h alone (levetiracetam study)): 30 nM and 11.1 ng/mL | concentration at 2 h ([1]; po, 1 mg/kg, Plasma concentration, Mean, Compound A 1 mg/kg PO 2 h alone (phenytoin study)): 50 nM and 17 ng/mL | concentration at 2 h ([1]; po, 1 mg/kg, Plasma concentration, Mean, Compound A 1 mg/kg PO 2 h alone (valproic acid study)): 66 nM and 24 ng/mL | concentration at 2 h ([1]; po, 2.5 mg/kg, Brain concentration, Mean, Compound A 2.5 mg/kg PO 2 h alone (phenytoin study)): 390 nM and 144 ng/g | concentration at 2 h ([1]; po, 2.5 mg/kg, Plasma concentration, Mean, Compound A 2.5 mg/kg PO 2 h alone (phenytoin study)): 120 nM and 45.1 ng/mL | concentration at 30 min ([2]; 7.5 mg/kg, Study 2B, Compound A 7.5 mg/kg group): 0.746 µM | concentration at 30 min ([2]; 7.5 mg/kg, Study 4B, Compound A 7.5 mg/kg group): 0.75 µM | concentration at 30 min ([2]; 10 mg/kg, Study 2A, Compound A 10 mg/kg group): 0.391 µM | concentration at 30 min ([2]; 10 mg/kg, Study 4A, Compound A 10 mg/kg group): 0.39 µM | concentration at 30 min ([2]; Study 2B, Compound A 10 mg/kg group, two mice): 0.608 µM
